{"source": "patent US8937088B2", "about": "“Ureas for the treatment and prevention of cancer” (Astar Biotech LLC, priority 2011, dated 2015)", "key": {"[1]": {"test_system": "Hep3B (human hepatoma cell line)", "assay": "Cell death detection, trypan blue exclusion assay, Hep3B", "format": "cell-based", "conditions": "5-day treatment", "method": "(§1) Biological Test 2. Cell Death Detection Using Trypan Blue Exclusion Assay.\n(§2) After drug treatment, cells were harvested by trypsinization with trypsin/EDTA for 10 min at 37° C. As some apoptotic cells detached from the culture substratum into the medium, these cells were also collected by centrifugation of the medium at 1,200 rpm for 5 min. The pooled cell pellets were resuspended and mixed with trypan blue dye. After Trypan blue stain was done, cells were counted by using a light microscope and a hemocytometer. Blue dye-incorporating cells were scored as being dead. Five hundred cells from randomly chosen fields were counted, and the number of dead cells was counted and expressed as a percentage of the total number of cells counted as shown in Tables 2 to 8 below."}, "[2]": {"test_system": "HepG2 (human Hepatocellular carcinoma cell line)", "assay": "Cell death detection, trypan blue exclusion assay, HepG2", "format": "cell-based", "conditions": "HepG2, 5-day treatment", "method": "as §1, §2"}, "[3]": {"test_system": "HT29 (human colon adenocarcinoma cell line)", "assay": "Cell death detection, trypan blue exclusion assay, HT29", "format": "cell-based", "conditions": "HT29, 5-day treatment", "method": "as §1, §2"}, "[4]": {"test_system": "HUH7 (human hepatoma cell line)", "assay": "Cell death detection, trypan blue exclusion assay, HUH7", "format": "cell-based", "conditions": "Huh-7, 168 h, HUH7, 7-day treatment, read-out: Cell Death (%) at Tested Concentration", "method": "as §1, §2"}, "[5]": {"test_system": "LNCaP (human prostate adenocarcinoma cell line)", "assay": "Cell death detection, trypan blue exclusion assay, LNCaP", "format": "cell-based", "conditions": "read-out: Cell Death (%) at Tested Concentration", "method": "as §1, §2"}, "[6]": {"test_system": "HUH7 (human hepatoma cell line)", "assay": "Cell death detection, trypan blue exclusion assay, HUH7, in combination with AZD-6244", "format": "cell-based", "conditions": "HUH7, 6-day treatment, compound 0.5 μM", "method": "as §1, §2"}, "[7]": {"test_system": "patient-derived primary squamous lung 14531 tumor", "assay": "In vivo activity in SCID mouse model with lung cancer, 30-day treatment", "conditions": "patient-derived primary squamous lung 14531 tumor in mouse, compared to the control", "excerpt": "Biological Test 4. In Vivo Activity in […] SCID Mouse Model with Lung Cancer\nBiological Test 5. In Vivo Activity in Senograph SCID Mouse Model with Lung Cancer"}}, "note": "Read-outs that look alike come from different tables or passages of the source."}
{"smiles": "CNC(=O)c1cc(Oc2ccc(NC(=O)Nc3ccc(S(F)(F)(F)(F)F)cc3)c(F)c2)ccn1", "note": "[Example 10, 4-[3-fluoro-4-({[4-(pentafluoro-λ^6-sulfanyl)phenyl]carbamoyl}amino)phenoxy]-N-methylpyridine-2-carboxamide]", "values": [{"measurement": "Cell Death (%) at Tested Concentration", "setting": "[1]; 0.25 uM", "value": 3.4, "unit": "%"}, {"measurement": "Cell Death (%) at Tested Concentration", "setting": "[1]; 3.0 uM", "value": 7.6, "unit": "%"}, {"measurement": "Cell Death (%) at Tested Concentration", "setting": "[1]; 5.0 uM", "value": 19.5, "unit": "%"}, {"measurement": "Cell Death (%) at Tested Concentration", "setting": "[2]; 0.25 uM", "value": 2.7, "unit": "%"}, {"measurement": "Cell Death (%) at Tested Concentration", "setting": "[2]; 3.0 uM", "value": 4.2, "unit": "%"}, {"measurement": "Cell Death (%) at Tested Concentration", "setting": "[2]; 5.0 uM", "value": 4.8, "unit": "%"}, {"measurement": "Cell Death (%) at Tested Concentration", "setting": "[3]; 2.5 uM", "value": 18.3, "unit": "%"}, {"measurement": "Cell Death (%) at Tested Concentration", "setting": "[3]; 5.0 uM", "value": 54.6, "unit": "%"}, {"measurement": "Cell Death (%) at Tested Concentration", "setting": "[3]; 10 uM", "value": 56.7, "unit": "%"}, {"measurement": "cytotoxicity at 1 µM", "setting": "[4]; 1.0 uM", "value": 1.9, "unit": "%"}, {"measurement": "cytotoxicity at 2.5 µM", "setting": "[4]; 2.5 uM", "value": 2.2, "unit": "%"}, {"measurement": "cytotoxicity at 5 µM", "setting": "[4]; 5.0 uM", "value": 17.2, "unit": "%"}, {"measurement": "cytotoxicity at 7.5 µM", "setting": "[4]; 7.5 uM", "value": 87.6, "unit": "%"}, {"measurement": "cytotoxicity at 10 µM", "setting": "[4]; 10 uM", "value": 93.7, "unit": "%"}, {"measurement": "cytotoxicity at 1 µM", "setting": "[5]; 72 h, 3-day treatment", "value": 1.8, "unit": "%"}, {"measurement": "cytotoxicity at 2.5 µM", "setting": "[5]; 72 h, 3-day treatment", "value": 1.9, "unit": "%"}, {"measurement": "cytotoxicity at 5 µM", "setting": "[5]; 72 h, 3-day treatment", "value": 9.4, "unit": "%"}, {"measurement": "cytotoxicity at 7.5 µM", "setting": "[5]; 72 h, 3-day treatment", "value": 11.3, "unit": "%"}, {"measurement": "cytotoxicity at 10 µM", "setting": "[5]; 72 h, 3-day treatment", "value": 68.3, "unit": "%"}, {"measurement": "cytotoxicity at 1 µM", "setting": "[5]; 168 h, 7-day treatment", "value": 2.2, "unit": "%"}, {"measurement": "cytotoxicity at 2.5 µM", "setting": "[5]; 168 h, 7-day treatment", "value": 2.8, "unit": "%"}, {"measurement": "cytotoxicity at 5 µM", "setting": "[5]; 168 h, 7-day treatment", "value": 99, "unit": "%"}, {"measurement": "cytotoxicity at 7.5 µM", "setting": "[5]; 168 h, 7-day treatment", "value": 99, "unit": "%"}, {"measurement": "cytotoxicity at 10 µM", "setting": "[5]; 168 h, 7-day treatment", "value": 99, "unit": "%"}, {"measurement": "Cell Death (%) in combination with AZD-6244", "setting": "[6]; AZD-6244 0 μM", "value": 1.7, "unit": "%"}, {"measurement": "Cell Death (%) in combination with AZD-6244", "setting": "[6]; AZD-6244 0.5 μM", "value": 94.6, "unit": "%"}, {"measurement": "effect in reducing the tumor volume", "setting": "[7]", "value": "significant effect in reducing the tumor volume"}]}
